Assay results as given in patent US12129246B1, “Hydroquinazoline derivatives for the treatment of a disease or disorder” (Novartis AG, priority 2023, dated 2024).
Where two headings read alike, the source gives them in different places.

Tests used:
[1] = molecular target: monkey NPR1 (Macaca fascicularis, UniProt A0A7N9DBT9); assay: Cellular cGMP production assay, monkey NPR1 expressing CHO-K1 cells (CisBio HTRF); type: cell-based; settings: for Monkey NPR1 Amax (% of ANP): maximum cGMP production as percentage of the maximum cGMP produced with ANP
In short: (§1)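 12-pt 3-fold dose-response, top 30 μM; buffer PBS + 0.1% BSA + 1 mM IBMX (PDE inhibitor); 30 min, 37 °C. Lyse, add cGMP-d2 + anti-cGMP-cryptate, 1 h RT. Ex 317 / em 665 nm; Delta F converted to cGMP via calibrator standard curve.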

[2] = molecular target: T1, human NPR1 (Homo sapiens, UniProt P16066); assay: Cellular cGMP production assay, human NPR1 expressing CHO-K1 cells (CisBio HTRF); type: cell-based; settings: for AC50: cGMP production, 30 min at 37° C., 12-point dose-response from 30 μM; for Human NPR1 Amax (% of ANP): maximum cGMP production as percentage of the maximum cGMP produced with ANP
T1 construct: host or cells: CHO-K1
T1 sequence (P16066 33-1061): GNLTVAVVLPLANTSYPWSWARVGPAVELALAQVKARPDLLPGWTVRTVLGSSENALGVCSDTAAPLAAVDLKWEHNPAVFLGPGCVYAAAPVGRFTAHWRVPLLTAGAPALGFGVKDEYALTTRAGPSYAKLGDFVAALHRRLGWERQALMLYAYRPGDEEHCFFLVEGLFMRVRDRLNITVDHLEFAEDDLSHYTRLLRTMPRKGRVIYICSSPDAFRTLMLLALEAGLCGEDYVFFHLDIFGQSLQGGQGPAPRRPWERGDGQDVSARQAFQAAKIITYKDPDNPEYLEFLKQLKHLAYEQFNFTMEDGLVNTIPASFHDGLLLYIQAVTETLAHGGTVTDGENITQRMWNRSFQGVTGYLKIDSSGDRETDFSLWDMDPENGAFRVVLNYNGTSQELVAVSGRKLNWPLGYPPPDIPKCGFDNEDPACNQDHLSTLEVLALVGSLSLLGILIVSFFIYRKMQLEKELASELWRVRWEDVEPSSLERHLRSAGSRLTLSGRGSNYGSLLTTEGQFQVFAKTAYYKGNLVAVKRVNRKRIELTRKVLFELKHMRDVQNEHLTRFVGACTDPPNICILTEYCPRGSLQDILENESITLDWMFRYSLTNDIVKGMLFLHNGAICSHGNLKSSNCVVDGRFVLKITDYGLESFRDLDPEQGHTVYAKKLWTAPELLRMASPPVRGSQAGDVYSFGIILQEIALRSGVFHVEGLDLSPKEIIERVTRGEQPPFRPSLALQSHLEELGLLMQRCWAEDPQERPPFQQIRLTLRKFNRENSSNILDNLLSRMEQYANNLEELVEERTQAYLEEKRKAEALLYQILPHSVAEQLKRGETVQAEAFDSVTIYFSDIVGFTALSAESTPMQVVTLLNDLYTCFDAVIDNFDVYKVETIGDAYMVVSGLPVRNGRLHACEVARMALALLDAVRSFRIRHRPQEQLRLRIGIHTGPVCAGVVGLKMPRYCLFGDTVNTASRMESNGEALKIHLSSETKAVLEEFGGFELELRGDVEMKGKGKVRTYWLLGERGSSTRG
In short: as §1

[3] = cGMP production, monkey NPR1 CHO-K1 cells, 30 min at 37° C., 12-point dose-response from 30 μM, read-out: Monkey NPR1 AC50

monkey NPR1, sequence (A0A7N9DBT9 entry or part of it): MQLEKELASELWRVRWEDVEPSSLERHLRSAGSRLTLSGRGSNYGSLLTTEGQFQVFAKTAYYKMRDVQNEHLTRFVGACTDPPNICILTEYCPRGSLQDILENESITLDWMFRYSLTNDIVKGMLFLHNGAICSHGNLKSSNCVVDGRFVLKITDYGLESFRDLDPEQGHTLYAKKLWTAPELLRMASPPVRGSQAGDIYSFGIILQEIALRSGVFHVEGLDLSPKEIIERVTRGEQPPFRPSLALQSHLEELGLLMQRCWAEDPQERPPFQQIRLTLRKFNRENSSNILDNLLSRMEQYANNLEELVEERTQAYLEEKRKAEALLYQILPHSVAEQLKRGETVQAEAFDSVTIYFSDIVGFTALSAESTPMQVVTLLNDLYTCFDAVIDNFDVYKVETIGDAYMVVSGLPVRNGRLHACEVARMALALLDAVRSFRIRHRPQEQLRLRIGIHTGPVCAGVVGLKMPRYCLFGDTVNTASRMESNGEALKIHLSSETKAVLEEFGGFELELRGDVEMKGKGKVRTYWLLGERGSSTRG

Row | SMILES | AC50 [1, 3] | Monkey NPR1 Amax (% of ANP) ([1]; monkey NPR1 CHO-K1 cells) | AC50 [2] | Human NPR1 Amax (% of ANP) [2] | AC50 [1]
1 | CC[C@H]([C@H]1CC[C@H](C(=O)O)CC1)N(C)c1nc2c(c(N[C@@H](CN3CCCCC3)c3cnn(CC4CC4)c3)n1)C[C@H](c1ccccc1)CC2 [Compound 147, (1R,4r)-4-((R)-1-(((R)-4-(((R)-1-(1-(cyclopropylmethyl)-1H-pyrazol-4-yl)-2-(piperidin-1-yl)ethyl)amino)-6-phenyl-5,6,7,8-tetrahydroquinazolin-2-yl)(methyl)amino)propyl)cyclohexane-1-carboxylic acid] | 671 nM | 101.537 % of ANP | 1080 nM | 97.612 % of ANP | –
2 | CC[C@H]([C@H]1CC[C@H](C(=O)O)CC1)N(C)c1nc2c(c(N[C@@H](CN3CCCCC3)c3ccc(=O)n(CC)c3)n1)C[C@H](c1ccccc1)CC2 [Compound 148, (1R,4r)-4-((R)-1-(((R)-4-(((R)-1-(1-ethyl-6-oxo-1,6-dihydropyridin-3-yl)-2-(piperidin-1-yl)ethyl)amino)-6-phenyl-5,6,7,8-tetrahydroquinazolin-2-yl)(methyl)amino)propyl)cyclohexane-1-carboxylic acid] | 834 nM | 102.851 % of ANP | 1080 nM | 93.518 % of ANP | –
3 | CC[C@H]([C@H]1CC[C@H](C(=O)O)CC1)N(C)c1nc2c(c(N[C@@H](CN3CCCC[C@@H]3CO)c3cnn(C)c3)n1)C[C@H](c1ccccc1)CC2 [Compound 149, (1R,4r)-4-((R)-1-(((R)-4-(((R)-2-((R)-2-(hydroxymethyl)piperidin-1-yl)-1-(1-methyl-1H-pyrazol-4-yl)ethyl)amino)-6-phenyl-5,6,7,8-tetrahydroquinazolin-2-yl)(methyl)amino)propyl)cyclohexane-1-carboxylic acid] | 1020 nM | 164.167 % of ANP | 1140 nM | 130.209 % of ANP | –
4 | CC[C@H]([C@H]1CC[C@H](C(=O)O)CC1)N(C)c1nc2c(c(N[C@@H](CN3CCCC(F)(F)CC3)c3cnn(C)c3)n1)C[C@H](c1ccccc1)CC2 [Compound 150, (1R,4r)-4-((R)-1-(((R)-4-(((R)-2-(4,4-difluoroazepan-1-yl)-1-(1-methyl-1H-pyrazol-4-yl)ethyl)amino)-6-phenyl-5,6,7,8-tetrahydroquinazolin-2-yl)(methyl)amino)propyl)cyclohexane-1-carboxylic acid] | 1040 nM | 156.200 % of ANP | 1160 nM | 130.487 % of ANP | –
5 | CC[C@@H](Nc1nc2c(c(N[C@@H](CN3CCC(OC)CC3)c3cnn(C)c3)n1)C[C@H](c1ccccc1)CC2)[C@H]1CC[C@H](C(=O)O)CC1 [Compound 151, (1R,4r)-4-((R)-1-(((R)-4-(((R)-2-(4-methoxypiperidin-1-yl)-1-(1-methyl-1H-pyrazol-4-yl)ethyl)amino)-6-phenyl-5,6,7,8-tetrahydroquinazolin-2-yl)amino)propyl)cyclohexane-1-carboxylic acid] | 1330 nM | 96.950 % of ANP | 1180 nM | 88.350 % of ANP | –
6 | CC[C@H]([C@H]1CC[C@H](C(=O)O)CC1)N(C)c1nc2c(c(N[C@@H](CN3CCC[C@H](C)C3)c3cnn(C)c3)n1)CN(C1CCCCC1)CC2 [Compound 152, (1R,4r)-4-((R)-1-((6-cyclohexyl-4-(((R)-1-(1-methyl-1H-pyrazol-4-yl)-2-((S)-3-methylpiperidin-1-yl)ethyl)amino)-5,6,7,8-tetrahydropyrido[4,3-d]pyrimidin-2-yl)(methyl)amino)propyl)cyclohexane-1-carboxylic acid] | – | 106.260 % of ANP | 1190 nM | 104.537 % of ANP | 600 nM
7 | CCn1cc([C@H](CN2C3CCCC2CCC3)Nc2nc(N[C@H](C)c3ccc(C(=O)O)cc3)nc3c2C[C@H](c2cccc(F)c2)CC3)cn1 [Compound 153, 4-((R)-1-(((R)-4-(((R)-2-((1S,5S)-9-azabicyclo[3.3.1]nonan-9-yl)-1-(1-ethyl-1H-pyrazol-4-yl)ethyl)amino)-6-(3-fluorophenyl)-5,6,7,8-tetrahydroquinazolin-2-yl)amino)ethyl)benzoic acid] | – | 98.372 % of ANP | 1200 nM | 93.868 % of ANP | 753 nM
8 | CC[C@H]([C@H]1CC[C@H](C(=O)O)CC1)N(C)c1nc2c(c(N[C@@H](CN3CCC(O)CC3)c3cnn(CC)c3)n1)C[C@H](c1ccccc1)CC2 [Compound 154, (1R,4r)-4-((R)-1-(((R)-4-(((R)-1-(1-ethyl-1H-pyrazol-4-yl)-2-(4-hydroxypiperidin-1-yl)ethyl)amino)-6-phenyl-5,6,7,8-tetrahydroquinazolin-2-yl)(methyl)amino)propyl)cyclohexane-1-carboxylic acid] | 802 nM | 97.456 % of ANP | 1240 nM | 105.125 % of ANP | –
9 | CC[C@@H](N(C)c1nc2c(c(N[C@@H](CN3CCC[C@H](C)C3)c3ccnn3C)n1)C[C@H](c1cccc(F)c1)CC2)C12CC(C(=O)O)(C1)C2 [Compound 155, 3-((R)-1-(((R)-6-(3-fluorophenyl)-4-(((S)-1-(1-methyl-1H-pyrazol-5-yl)-2-((S)-3-methylpiperidin-1-yl)ethyl)amino)-5,6,7,8-tetrahydroquinazolin-2-yl)(methyl)amino)propyl)bicyclo[1.1.1]pentane-1-carboxylic acid] | 648 nM | 95.840 % of ANP | 1290 nM | 97.313 % of ANP | –
10 | CC[C@H]([C@H]1CC[C@H](C(=O)O)CC1)N(C)c1nc2c(c(N[C@@H](CN3CCCC(F)C3)c3cnn(C)c3)n1)C[C@H](c1ccccc1)CC2 (stereo partly drawn) [Compound 156, (1R,4r)-4-((1R)-1-(((6R)-4-(((1R)-2-(3-fluoropiperidin-1-yl)-1-(1-methyl-1H-pyrazol-4-yl)ethyl)amino)-6-phenyl-5,6,7,8-tetrahydroquinazolin-2-yl)(methyl)amino)propyl)cyclohexane-1-carboxylic acid] | 1160 nM | 105.900 % of ANP | 1300 nM | 93.013 % of ANP | –
11 | CC[C@H]([C@H]1CC[C@H](C(=O)O)CC1)N(C)c1nc2c(c(N[C@@H](CN3CCCCC3)c3cnn(C)c3)n1)CN(c1cccc(F)c1)CC2 [Compound 157, (1R,4r)-4-((R)-1-((6-(3-fluorophenyl)-4-(((R)-1-(1-methyl-1H-pyrazol-4-yl)-2-(piperidin-1-yl)ethyl)amino)-5,6,7,8-tetrahydropyrido[4,3-d]pyrimidin-2-yl)(methyl)amino)propyl)cyclohexane-1-carboxylic acid] | 999 nM | 105.667 % of ANP | 1430 nM | 99.549 % of ANP | –
12 | CC(Nc1nc2c(c(N[C@@H](CN3CCCC3)c3ccccc3)n1)CC(c1ccccc1)CC2)[C@H]1CC[C@H](C(=O)O)CC1 (stereo partly drawn) [Compound 158, (1S,4r)-4-((1S)-1-((6-phenyl-4-(((R)-1-phenyl-2-(pyrrolidin-1-yl)ethyl)amino)-5,6,7,8-tetrahydroquinazolin-2-yl)amino)ethyl)cyclohexane-1-carboxylic acid] | 1270 nM | 165.777 % of ANP | 1430 nM | 109.837 % of ANP | –
13 | C[C@@H](Nc1nc2c(c(N[C@@H](CN3CCCC3)c3ccccc3)n1)C[C@H](c1ccccc1)CC2)c1ccc(C(=O)O)cc1 [Compound 159, 4-((R)-1-(((R)-6-phenyl-4-(((R)-1-phenyl-2-(pyrrolidin-1-yl)ethyl)amino)-5,6,7,8-tetrahydroquinazolin-2-yl)amino)ethyl)benzoic acid] | 503 nM | 98.468 % of ANP | 1580 nM | 92.446 % of ANP | –
